# Laboratory results taken from patent publication US9944645B2, “Imidazotriazines and imidazopyrimidines as kinase inhibitors” (Incyte Holdings Corporation, priority 2006, dated 2018).
# Molecular target: c-Met kinase (h-Met; histidine-tagged c-Met catalytic domain fusion protein) (Homo sapiens (Human), UniProt P08581)
# Experiment: In Vitro c-Met Kinase Enzyme Assays
# Type: biochemical
# Settings: phosphorylation of poly Glu-Tyr, 5 μM ATP, 25 minutes at 30° C.
# How it was run: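 His-tagged c-Met catalytic domain reacted 25 min at 30° C, within the linear initial-rate range. Phosphotyrosine detected by ELISA with peroxidase-labeled anti-phospho-tyrosine antibody and TMB, OD read at 450 nm (540 nm correction); IC50 from curve fit.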
# c-Met kinase (h-Met; histidine-tagged c-Met catalytic domain fusion protein), sequence (P08581 1078-1345): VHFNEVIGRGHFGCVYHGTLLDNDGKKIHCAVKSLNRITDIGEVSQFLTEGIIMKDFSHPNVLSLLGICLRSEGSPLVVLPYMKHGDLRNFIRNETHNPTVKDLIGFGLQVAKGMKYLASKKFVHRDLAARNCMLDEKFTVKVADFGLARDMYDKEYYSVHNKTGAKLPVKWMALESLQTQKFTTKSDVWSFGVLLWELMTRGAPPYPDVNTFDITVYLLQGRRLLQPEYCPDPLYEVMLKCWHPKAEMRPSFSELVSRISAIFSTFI
row,SMILES,IC50 [µM]
1,"N#CCn1cc(-c2cnc3ncc(C4(c5ccc6ncccc6c5)CC4)n3c2)cn1 [Example 93, {4-[3-(1-Quinolin-6-ylcyclopropyl)imidazo[1,2-a]pyrimidin-6-yl]-1H-pyrazol-1-yl}acetonitrile]",< 0.5
2,"CNC(=O)c1ccc(-c2ccc(-c3cnc4ncc(C5(c6ccc7ncccc7c6)CC5)n4n3)cc2)cn1 [Example 94, N-Methyl-5-{4-[7-(1-quinolin-6-ylcyclopropyl)imidazo[1,2-b][1,2,4]triazin-2-yl]phenyl}pyridine-2-carboxamide]",< 0.5
3,"c1cnc2ccc(C3(c4cnc5ncc(-c6ccc(-c7cncnc7)cc6)nn45)CC3)cc2c1 [Example 95, 6-{1-[2(4-Pyrimidin-5-yl-phenyl)imidazo[1,2-b][1,2,4]triazin-7-yl]cyclopropyl}quinoline]",< 0.5
4,"CC(=O)N1CC=C(c2ccc(-c3cnc4ncc(C5(c6ccc7ncccc7c6)CC5)n4n3)cc2)CC1 [Example 96, 6-(1-{2-[4-(1-Acetyl-1,2,3,6-tetrahydropyridin-4-yl)phenyl]imidazo[1,2-b][1,2,4]triazin-7-yl}cyclopropyl)quinoline]",< 0.5
5,"CS(=O)(=O)N1CC=C(c2ccc(-c3cnc4ncc(C5(c6ccc7ncccc7c6)CC5)n4n3)cc2)CC1 [Example 97, 6-[1-(2-{4-[1-(Methylsulfonyl)-1,2,3,6-tetrahydropyridin-4-yl]phenyl}imidazo[1,2-b][1,2,4]triazin-7-yl)cyclopropyl]quinoline]",< 0.5
6,"CN(C)C(=O)c1ccc(-c2ccc(-c3cnc4ncc(C5(c6ccc7ncccc7c6)CC5)n4n3)cc2)cn1 [Example 98, N,N-Dimethyl-5-{4-[7-(1-quinolin-6-ylcyclopropyl)imidazo[1,2-b][1,2,4]triazin-2-yl]phenyl}pyridine-2-carboxamide]",< 0.5
7,"c1cnc2ccc(C3(c4cnc5ncc(-c6ccc(-n7ccnc7)cc6)nn45)CC3)cc2c1 [Example 99, 6-(1-{2-[4-(1H-Imidazol-1-yl)phenyl]imidazo[1,2-b][1,2,4]triazin-7-yl}cyclopropyl)-quinoline]",< 0.5
8,"O=C(N[C@H]1CC[C@H](O)CC1)c1ccc(-c2cnc3ncc(C4(c5ccc6ncccc6c5)CC4)n3n2)cc1F [Example 100, 2-Fluoro-N-(trans-4-hydroxycyclohexyl)-4-[7-(1-quinolin-6-ylcyclopropyl)imidazo[1,2-b][1,2,4]triazin-2-yl]benzamide]",< 0.5
9,"O=C(NC1CC1)c1ccc(-c2cnc3ncc(C4(c5ccc6ncccc6c5)CC4)n3n2)cc1F [Example 101, N-Cyclopropyl-2-fluoro-4-[7-(1-quinolin-6-ylcyclopropyl)imidazo[1,2-b][1,2,4]triazin-2-yl]benzamide]",< 0.5
10,"CNC(=O)c1ccc(-c2cnc3ncc(C4(c5ccc6ncccc6c5)CC4)n3n2)cc1F [Example 102, 2-Fluoro-N-methyl-4-[7-(1-quinolin-6-ylcyclopropyl)imidazo[1,2-b][1,2,4]triazin-2-yl]benzamide]",< 0.5
11,"COCC1(NC(=O)c2ccc(-c3cnc4ncc(C5(c6ccc7ncccc7c6)CC5)n4n3)cc2F)CC1 [Example 103, 2-Fluoro-N-[1-(methoxymethyl)cyclopropyl]-4-[7-(1-quinolin-6-ylcyclopropyl)imidazo[1,2-b][1,2,4]triazin-2-yl]benzamide]",< 0.5
12,"NC(=O)c1ccc(-c2cnc3ncc(C4(c5ccc6ncccc6c5)CC4)n3n2)cc1F [Example 104, 2-Fluoro-4-(7-(1-(quinolin-6-yl)cyclopropyl)imidazo[1,2-b][1,2,4]triazin-2-yl)benzamide]",< 0.5
13,"O=C(NCC1CCCO1)c1ccc(-c2cnc3ncc(C4(c5ccc6ncccc6c5)CC4)n3n2)cc1 (stereo not shown) [Example 105, 4-[7-(1-Quinolin-6-ylcyclopropyl)imidazo[1,2-b][1,2,4]triazin-2-yl]-N-(tetrahydrofuran-2-ylmethyl)benzamide]",< 0.5
